Earlier results as cited in US6776977B2, “Polypodal chelants for metallopharmaceuticals” (Bristol-Myers Squibb Pharma Company, priority 2001, dated 2004).

Settings: decomposition under acidic conditions

## O=C([O-])CN(CCN(CC(=O)[O-])CC(=O)[O-])CCN(CC(=O)[O-])CC(=O)[O-].[Gd+3] [Gd(DTPA)^2−]
  Kobs: 0.0012 s⁻¹
